Experimental data: patent US20100035911A1, “DRUG COMBINATIONS TO TREAT HYPERPROLIFERATIVE DISORDERS” (priority 2006, published 2010)

Legend:
[1] = tested on: human ovarian cancer cell line, CRL-1572; experiment: Survival of mice bearing CRL-1572 ovarian cancer subcutaneous xenografts; type: in vivo; settings: CRL-1572 xenografts; single agents at the drug doses employed
Excerpt: Fenretinide combined with taxanes is active against ovarian cancer Xenografts. Based on the surprising and favorable results observed when combining ABT-751 with fenretinide with neuroblastoma xenografts and vincristine with fenretinide for a lymphoma xenograft, we explored other types of cancer as xenografts and we also sought to test taxanes for a possible increase in activity when combined with fenretinide.

[2] = tested on: human neuroblastoma cell line CHLA-136; experiment: Event-free survival of mice bearing CHLA-136 subcutaneous xenografts; type: in vivo, nu/nu mice; settings: CHLA-136 xenograft; single agents at the drug doses employed
Excerpt: Treating cancer in xenografts with fenretinide+ABT-751. Administration of fenretinide and ABT-751 in combination to nu/nu mice bearing subcutaneous xenografts of multi-drug resistant neuroblastoma xenografts (tumor cell lines are described in: Keshelava N, Zuo J J, Chen P, Waidyaratine S N, Luna M C, Gomer C J, Triche T J, Reynolds C P: Loss of p53 function confers high-level multi-drug resistance in neuroblastoma cell lines. Cancer Research 61:6185-6193, 2001, and xenograft methods are described in: Reynolds, C P, Sun B C, DeClerck Y A, Moats R A: Assessing growth and response to therapy in murine tumor models. Methods in Molecular Medicine Chemosensitivity Vol 2 ed. Blumenthal R D, Totowa: Humana Press pp 335-350, 2005.
Mice were treated daily with ABT-751, and twice daily with fenretinide for 5 days/week. Fenretinide was given as a powder LXS formulation mixed with water (Maurer B J, Kalous O, Yesair D W, Wu X, Vratilova J, Maldonado V, Khankaldyyan V, Frgala T, Sun B C, McKee R T, Burgess S W, Shaw W A, Reynolds C P. Improved oral delivery of N-(4-hydroxyphenyl)retinamide with novel LYM-X-SORB™ organized lipid complex in mice. Clinical Cancer Research (In Press, 2007)). Both drugs were given to mice by gavage.

[3] = tested on: human Ramos Burkitts lymphoma cell line; experiment: Survival of mice bearing Ramos lymphoma subcutaneous xenografts; type: in vivo; settings: single agents at the drug doses employed
Procedure: Treating lymphoma xenografts with fenretinide combined with vincristine. […] Testing of fenretinide+vincristine was carried out as described for fenretinide+ABT-751 in Example 1, except that vincristine was given by i.p. injection twice a week during the 5 day administration of fenretinide.

[4] = cited from earlier work

| Compound | response of tumor cell line to single agent [1] | response of xenograft to single agent [2] | response of tumor cell line to single agent [3] | solubility in aqueous solution [4] |
| --- | --- | --- | --- | --- |
| CC(=O)O[C@H]1C(=O)[C@@]2(C)[C@H]([C@H](OC(=O)c3ccccc3)[C@]3(O)C[C@H](OC(=O)[C@H](O)[C@@H](NC(=O)c4ccccc4)c4ccccc4)C(C)=C1C3(C)C)[C@]1(OC(C)=O)CO[C@@H]1C[C@@H]2O [paclitaxel] | minimally responsive | – | – | – |
| CC1=C(/C=C/C(C)=C/C=C/C(C)=C/C(=O)Nc2ccc(O)cc2)C(C)(C)CCC1 [fenretinide, all-trans-N-(4-hydroxyphenyl)retinamide] | minimally responsive | minimally response | minimally responsive | minimally soluble |
| COc1ccc(S(=O)(=O)Nc2cccnc2Nc2ccc(O)cc2)cc1 [ABT-751] | – | minimally response | – | – |
| vincristine | – | – | minimally responsive | – |
